In patent US20250163052A1, “cGAS INHIBITORS AND USES THEREOF” (Cornell University, priority 2022, published 2025):

Key:
h-cGAS = h-cGAS (Homo sapiens, UniProt Q8N884); experiment: Cell-free human cGAS enzyme inhibition assay (ATP depletion, Kinase-Glo Max); type: biochemical; settings: human cGAS
P301S mice = experiment: Immunofluorescent staining of hippocampal synapses (PSD-95, vGAT) in P301S mice; type: in vivo, mouse; settings: hippocampal CA1, 150 mg/kg diet for three months
Description: P301S transgenic mice (https://www.jax.org/strain/008169) were crossed with cGas knockout mice (https://www.jax.org/strain/026554) to generate littermate P301S cGas+/+ mice, P301S cGas+/− and littermate P301S cGas−/− mice, as well as non-transgenic littermates. Mice of both sexes were used behavioral, histological and biochemical analyses. Mice underwent behavioral testing at 7 to 8 months of age and had not been used for any other experiments. At 9 to 10 months of age, the same mice were used for pathology and RNA-seq studies. For TDI-6570 in vivo treatment, P301S and non-transgenic littermate mice at 6-7 months were used for diet experiments and were assayed for behavior and histology at 9-10 months. Mice were housed under specific pathogen-free conditions under a 12 h light-dark cycle and all mouse protocols were approved by the Institutional Animal Care and Use Committee, University of California, San Francisco.
Hemibrains from transcardially perfused mice were placed in 4% paraformaldehyde for 48 h, followed by 30% sucrose PBS for 48 h at 4° C. Sections were cut coronally at 40 μm using a freezing microtome (Leica) and placed in cryoprotective medium at −20° C. until use. 8-10 free floating sections per mouse. […] Quantification was done using ImageJ software (NIH) using percentage area based on thresholding determined using negative and positive controls. […]

[1] = Metabolic stability in human liver microsomes
[2] = Metabolic stability in mouse liver microsomes
[3] = Protein binding in mouse brain homogenates; type: in vitro ADME

h-cGAS, sequence (Q8N884 whole entry): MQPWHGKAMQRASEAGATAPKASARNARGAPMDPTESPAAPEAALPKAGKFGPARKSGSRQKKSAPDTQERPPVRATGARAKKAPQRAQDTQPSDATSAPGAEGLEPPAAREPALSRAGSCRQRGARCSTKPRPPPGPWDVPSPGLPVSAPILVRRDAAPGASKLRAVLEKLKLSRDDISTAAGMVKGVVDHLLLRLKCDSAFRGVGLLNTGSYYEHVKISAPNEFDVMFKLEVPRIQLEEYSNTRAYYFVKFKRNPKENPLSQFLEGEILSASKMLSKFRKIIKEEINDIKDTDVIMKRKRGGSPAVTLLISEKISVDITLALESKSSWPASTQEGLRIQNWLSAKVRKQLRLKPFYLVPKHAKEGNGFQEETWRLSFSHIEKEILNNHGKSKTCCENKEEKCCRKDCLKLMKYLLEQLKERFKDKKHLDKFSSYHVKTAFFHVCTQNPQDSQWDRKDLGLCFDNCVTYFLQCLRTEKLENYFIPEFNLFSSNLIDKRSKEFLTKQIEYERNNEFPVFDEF

Cn1c2c(c3ccc(Cl)c(F)c31)CN(C(=O)CO)CC2 [TDI-6570, reference compound]
IC50 (h-cGAS): 138 nM | P301S-dependent excitatory synapse loss (PSD-95) (P301S mice): rescued | P301S-dependent inhibitory synapse loss (vGAT) (P301S mice): rescued | Remaining (NCF = 60 min) ([1]; human liver microsomes, 60 min, no co-factor (no NADPH)): 120.6% | Remaining (T = 60 min) ([1]; human liver microsomes, 60 min with NADPH): 11.3% | CLint(liver) ([1]; human liver microsomes, scaled from CLint(mic)): 68.2 mL/min/kg | CLint(mic) ([1]; human, liver microsomes): 75.8 µL/min/mg | T½ ([1]; human, liver microsomes): 18.3 min | Remaining (NCF = 60 min) ([2]; mouse liver microsomes, 60 min, no co-factor (no NADPH)): 100.0% | Remaining (T = 60 min) ([2]; mouse liver microsomes, 60 min with NADPH): 0.0% | CLint(liver) ([2]; mouse liver microsomes, scaled from CLint(mic)): 997.5 mL/min/kg | CLint(mic) ([2]; mouse, liver microsomes): 251.9 µL/min/mg | T½ ([2]; mouse, liver microsomes): 5.5 min | % Recovery [3]: 89.39% | LogK [3]: 2.38 | % Remaining at 6 hr ([3]; 6 hr): 94.51%
